Data: patent publication US20150105252A1, “SUBSTITUTED PYRAZOLES AS HERBICIDES” (E I DU PONT DE NEMOURS AND COMPANY, priority 2013, published 2015)

Legend:
velvetleaf [1] = assay: Test A postemergence; type: in vivo, Abutilon theophrasti; settings: Postemergence, 1000 g ai/ha; visual rating after approx. 10 days, 0 to 100 scale (0 no effect, 100 complete control)
Procedure, shortened: (§1)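 Seeds were sown in a loam soil–sand blend and given a directed soil spray preemergence; postemergence plants at 2–10 cm, one- to two-leaf stage, were sprayed with compound in non-phytotoxic solvent with surfactant. After about 10 days in a greenhouse, injury was visually rated against untreated controls (0 = no effect, 100 = complete control).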

morningglory [2] = assay: Test A postemergence; type: in vivo, Ipomoea spp.; settings: Postemergence, 1000 g ai/ha; visual rating after approx. 10 days, 0 to 100 scale (0 no effect, 100 complete control)
Procedure, shortened: as §1

morningglory [3] = assay: Test A preemergence; type: in vivo, Ipomoea spp.; settings: Preemergence, 1000 g ai/ha; 0 to 100 scale, 0 no effect, 100 complete control
Procedure, shortened: as §1

foxtail, giant [4] = assay: Test A postemergence; type: in vivo, Setaria faberii; settings: Postemergence, 1000 g ai/ha; visual rating after approx. 10 days, 0 to 100 scale (0 no effect, 100 complete control)
Procedure, shortened: as §1

corn [5] = assay: Test A postemergence; type: in vivo, Zea mays; settings: Postemergence, 1000 g ai/ha; visual rating after approx. 10 days, 0 to 100 scale (0 no effect, 100 complete control)
Procedure, shortened: as §1

wheat [6] = assay: Test A preemergence; type: in vivo, Triticum aestivum; settings: Preemergence, 1000 g ai/ha; 0 to 100 scale, 0 no effect, 100 complete control
Procedure, shortened: as §1

barnyardgrass [7] = assay: Test A postemergence; type: in vivo, Echinochloa crus-galli; settings: Postemergence, 1000 g ai/ha; visual rating after approx. 10 days, 0 to 100 scale (0 no effect, 100 complete control)
Procedure, shortened: as §1

crabgrass, large [8] = assay: Test A postemergence; type: in vivo, Digitaria sanguinalis; settings: Postemergence, 1000 g ai/ha; visual rating after approx. 10 days, 0 to 100 scale (0 no effect, 100 complete control)
Procedure, shortened: as §1

barnyardgrass [9] = assay: Test A preemergence; type: in vivo, Echinochloa crus-galli; settings: Preemergence, 1000 g ai/ha; 0 to 100 scale, 0 no effect, 100 complete control
Procedure, shortened: as §1

foxtail, giant [10] = assay: Test A preemergence; type: in vivo, Setaria faberii; settings: Preemergence, 1000 g ai/ha; 0 to 100 scale, 0 no effect, 100 complete control
Procedure, shortened: as §1

pigweed [11] = assay: Test A postemergence; type: in vivo, Amaranthus retroflexus; settings: Postemergence, 1000 g ai/ha; visual rating after approx. 10 days, 0 to 100 scale (0 no effect, 100 complete control)
Procedure, shortened: as §1

rice = assay: Test C flooded paddy test; type: in vivo, Oryza sativa; settings: Flood
Text: (§2) At time of treatment, test pots were flooded to 3 cm above the soil surface, treated by application of test compounds directly to the paddy water, and then maintained at that water depth for the duration of the test. Treated plants and controls were maintained in a greenhouse for 13 to 15 days, after which time all species were compared to controls and visually evaluated. […] A dash (-) response means no test result.

ducksalad = assay: Test C flooded paddy test; type: in vivo, Heteranthera limosa; settings: Flood
Procedure, shortened: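 Pots were flooded to 3 cm above the soil surface at treatment, compound applied directly to the paddy water, and that depth held throughout. Plants were kept in a greenhouse for 13 to 15 days, then visually rated against untreated controls.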

corn [12] = assay: Test A preemergence; type: in vivo, Zea mays; settings: Preemergence, 1000 g ai/ha; 0 to 100 scale, 0 no effect, 100 complete control
Procedure, shortened: as §1

crabgrass, large [13] = assay: Test A preemergence; type: in vivo, Digitaria sanguinalis; settings: Preemergence, 1000 g ai/ha; 0 to 100 scale, 0 no effect, 100 complete control
Procedure, shortened: as §1

sedge, umbrella = assay: Test C flooded paddy test; type: in vivo, Cyperus difformis; settings: Flood
Text: as §2

velvetleaf [14] = assay: Test A preemergence; type: in vivo, Abutilon theophrasti; settings: Preemergence, 1000 g ai/ha; 0 to 100 scale, 0 no effect, 100 complete control
Procedure, shortened: as §1

wheat [15] = assay: Test A postemergence; type: in vivo, Triticum aestivum; settings: Postemergence, 1000 g ai/ha; visual rating after approx. 10 days, 0 to 100 scale (0 no effect, 100 complete control)
Procedure, shortened: as §1

barnyardgrass [16] = assay: Test C flooded paddy test; type: in vivo, Echinochloa crus-galli; settings: Flood
Text: as §2

pigweed [17] = assay: Test A preemergence; type: in vivo, Amaranthus retroflexus; settings: Preemergence, 1000 g ai/ha; 0 to 100 scale, 0 no effect, 100 complete control
Procedure, shortened: as §1

[18] = 31 g ai/ha, scale 0 to 100 (0 no effect, 100 complete control)
[19] = 62 g ai/ha, scale 0 to 100 (0 no effect, 100 complete control)

Row | SMILES | Velvetleaf plant response rating (velvetleaf [1]) | Morningglory plant response rating (morningglory [2]) | Morningglory plant response rating (morningglory [3]) | Foxtail, Giant plant response rating (foxtail, giant [4]) | Corn plant response rating (corn [5]) | Wheat plant response rating (wheat [6]) | Barnyardgrass plant response rating (barnyardgrass [7]) | Crabgrass, Large plant response rating (crabgrass, large [8]) | Barnyardgrass plant response rating (barnyardgrass [9]) | Foxtail, Giant plant response rating (foxtail, giant [10]) | Pigweed plant response rating (pigweed [11]) | Plant response rating, Rice (rice; [18]) | Plant response rating, Rice (rice; [19]) | Plant response rating, Rice (rice; 125 g ai/ha, scale 0 to 100) | Plant response rating, Rice (rice; 250 g ai/ha, scale 0 to 100) | Plant response rating, Ducksalad (ducksalad; [18]) | Plant response rating, Ducksalad (ducksalad; [19]) | Plant response rating, Ducksalad (ducksalad; 125 g ai/ha, scale 0 to 100) | Plant response rating, Ducksalad (ducksalad; 250 g ai/ha, scale 0 to 100) | Corn plant response rating (corn [12]) | other results
1 | CCCc1cc(C(=O)NCC(F)(F)F)nn1Cc1cccc(OC(F)(F)F)c1 [Compound 32] | 80 | 100 | 50 | 50 | 30 | 0 | 40 | 70 | 70 | 100 | 100 | 0 | 0 | 0 | 0 | 10 | 20 | 50 | 70 | 0 | Crabgrass, Large plant response rating (crabgrass, large [13]): 100; Plant response rating, Sedge, Umbrella (sedge, umbrella; [18]): 20; Plant response rating, Sedge, Umbrella (sedge, umbrella; [19]): 30; Plant response rating, Sedge, Umbrella (sedge, umbrella; 125 g ai/ha, scale 0 to 100): 50; Plant response rating, Sedge, Umbrella (sedge, umbrella; 250 g ai/ha, scale 0 to 100): 80; Velvetleaf plant response rating (velvetleaf [14]): 30; Wheat plant response rating (wheat [15]): 20; Plant response rating, Barnyardgrass (barnyardgrass [16]; [18]): 0; Plant response rating, Barnyardgrass (barnyardgrass [16]; [19]): 0; Plant response rating, Barnyardgrass (barnyardgrass [16]; 125 g ai/ha, scale 0 to 100): 0; Plant response rating, Barnyardgrass (barnyardgrass [16]; 250 g ai/ha, scale 0 to 100): 0; Pigweed plant response rating (pigweed [17]): 100
2 | CCc1cc(C(=O)NCC2CC2)nn1Cc1cccc(OC(F)(F)F)c1 [Compound 53] | 80 | 90 | 40 | 50 | 40 | 0 | 40 | 50 | 40 | 90 | 80 | 0 | 0 | 10 | 30 | 0 | 0 | 0 | 40 | 10 | Crabgrass, Large plant response rating (crabgrass, large [13]): 100; Plant response rating, Sedge, Umbrella (sedge, umbrella; [18]): 0; Plant response rating, Sedge, Umbrella (sedge, umbrella; [19]): 0; Plant response rating, Sedge, Umbrella (sedge, umbrella; 125 g ai/ha, scale 0 to 100): 0; Plant response rating, Sedge, Umbrella (sedge, umbrella; 250 g ai/ha, scale 0 to 100): 80; Velvetleaf plant response rating (velvetleaf [14]): 30; Wheat plant response rating (wheat [15]): 30; Plant response rating, Barnyardgrass (barnyardgrass [16]; [18]): 0; Plant response rating, Barnyardgrass (barnyardgrass [16]; [19]): 0; Plant response rating, Barnyardgrass (barnyardgrass [16]; 125 g ai/ha, scale 0 to 100): 0; Plant response rating, Barnyardgrass (barnyardgrass [16]; 250 g ai/ha, scale 0 to 100): 15; Pigweed plant response rating (pigweed [17]): 100
3 | CCCNC(=O)c1cc(CCC)n(Cc2cccc(OC(F)(F)F)c2)n1 [Compound 35] | 100 | 100 | 50 | 40 | 20 | 0 | 30 | 70 | 70 | 100 | 90 | 0 | 0 | 0 | 0 | 0 | 20 | 20 | 60 | 0 | Crabgrass, Large plant response rating (crabgrass, large [13]): 100; Plant response rating, Sedge, Umbrella (sedge, umbrella; [18]): 20; Plant response rating, Sedge, Umbrella (sedge, umbrella; [19]): 30; Plant response rating, Sedge, Umbrella (sedge, umbrella; 125 g ai/ha, scale 0 to 100): 50; Plant response rating, Sedge, Umbrella (sedge, umbrella; 250 g ai/ha, scale 0 to 100): 80; Velvetleaf plant response rating (velvetleaf [14]): 50; Wheat plant response rating (wheat [15]): 20; Plant response rating, Barnyardgrass (barnyardgrass [16]; [18]): 0; Plant response rating, Barnyardgrass (barnyardgrass [16]; [19]): 0; Plant response rating, Barnyardgrass (barnyardgrass [16]; 125 g ai/ha, scale 0 to 100): 10; Plant response rating, Barnyardgrass (barnyardgrass [16]; 250 g ai/ha, scale 0 to 100): 10; Pigweed plant response rating (pigweed [17]): 90
4 | CCCc1cc(C(=O)NC2CC2)nn1Cc1cccc(OC(F)(F)F)c1 [Compound 34] | 100 | 100 | 60 | 90 | 40 | 20 | 50 | 90 | 60 | 100 | 100 | 0 | 0 | 0 | 10 | 0 | 10 | 30 | 80 | 10 | Crabgrass, Large plant response rating (crabgrass, large [13]): 100; Plant response rating, Sedge, Umbrella (sedge, umbrella; [18]): 0; Plant response rating, Sedge, Umbrella (sedge, umbrella; [19]): 10; Plant response rating, Sedge, Umbrella (sedge, umbrella; 125 g ai/ha, scale 0 to 100): 70; Plant response rating, Sedge, Umbrella (sedge, umbrella; 250 g ai/ha, scale 0 to 100): 80; Velvetleaf plant response rating (velvetleaf [14]): 30; Wheat plant response rating (wheat [15]): 30; Plant response rating, Barnyardgrass (barnyardgrass [16]; [18]): 0; Plant response rating, Barnyardgrass (barnyardgrass [16]; [19]): 0; Plant response rating, Barnyardgrass (barnyardgrass [16]; 125 g ai/ha, scale 0 to 100): 0; Plant response rating, Barnyardgrass (barnyardgrass [16]; 250 g ai/ha, scale 0 to 100): 20; Pigweed plant response rating (pigweed [17]): 80
